Test results reported in US8852554B2, “Radiolabelled PDE10 ligands” (Janssen Pharmaceutica NV, priority 2009, dated 2014).
Structures can show the parent of a compound that is named as a salt.

Columns and labels:
[1] = molecular target: T1, Rat recombinant PDE10A (rPDE10A) (Rattus norvegicus, UniProt Q9QYJ6); assay: rat PDE10A2-cAMP inhibition, in vitro SPA assay; type: biochemical; details: 60 nM cAMP substrate
T1 construct: made in house; host or cells: Sf9 insect cells (baculovirus)
T1 sequence (Q9QYJ6 1-794): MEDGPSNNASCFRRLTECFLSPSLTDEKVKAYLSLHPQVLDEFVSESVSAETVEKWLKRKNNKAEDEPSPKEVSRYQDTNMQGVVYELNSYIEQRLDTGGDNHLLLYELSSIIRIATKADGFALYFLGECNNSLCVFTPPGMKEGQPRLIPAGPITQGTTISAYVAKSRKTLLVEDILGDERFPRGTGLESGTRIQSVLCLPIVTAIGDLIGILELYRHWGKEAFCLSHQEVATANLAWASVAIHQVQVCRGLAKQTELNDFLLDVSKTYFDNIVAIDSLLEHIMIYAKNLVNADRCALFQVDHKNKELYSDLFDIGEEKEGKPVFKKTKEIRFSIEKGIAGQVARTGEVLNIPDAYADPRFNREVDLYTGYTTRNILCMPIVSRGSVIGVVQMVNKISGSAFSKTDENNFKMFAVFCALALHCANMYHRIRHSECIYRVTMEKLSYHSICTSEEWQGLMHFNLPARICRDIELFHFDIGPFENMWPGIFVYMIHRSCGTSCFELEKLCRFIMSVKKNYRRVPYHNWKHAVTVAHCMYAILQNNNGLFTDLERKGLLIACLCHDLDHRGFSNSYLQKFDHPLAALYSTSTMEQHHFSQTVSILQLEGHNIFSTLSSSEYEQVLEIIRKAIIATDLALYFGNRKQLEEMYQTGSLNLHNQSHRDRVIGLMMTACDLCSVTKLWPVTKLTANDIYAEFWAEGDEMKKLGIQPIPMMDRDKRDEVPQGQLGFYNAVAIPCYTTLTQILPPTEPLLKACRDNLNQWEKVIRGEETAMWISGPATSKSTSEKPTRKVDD
Experimental: Rat recombinant PDE10A (rPDE10A) was expressed in Sf9 cells using a recombinant rPDE10A baculovirus construct. Cells were harvested after 48 h of infection and the rPDE10A protein was purified by metal chelate chromatography on Ni-sepharose 6FF. Tested compounds were dissolved and diluted in 100% DMSO to a concentration 100 fold of the final concentration in the assay. Compound dilutions (0.4 μl) were added in 384 well plates to 20 μl of incubation buffer (50 mM Tris pH 7.8, 8.3 mM MgCl2, 1.7 mM EGTA). 10 μl of rPDE10A enzyme in incubation buffer was added and the reaction was started by addition of 10 μl substrate to a final concentration of 60 nM cAMP and 0.008 μCi 3H-cAMP. The reaction was incubated for 60 minutes at room temperature. […] After sedimentation of the beads during 30 minutes, the radioactivity was measured in a Perkin Elmer Topcount scintillation counter and results were expressed as cpm. For blanc values the enzyme was omitted from the reaction and replaced by incubation buffer. Control values were obtained by addition of a final concentration of 1% DMSO instead of compound.

PDE10A = molecular target: T2, PDE10A (Rattus norvegicus, UniProt Q9QYJ6); assay: MicroPET imaging studies; type: in vivo, male Wistar rats; details: simplified reference tissue model, cerebellum as reference
T2 construct: from tissue; host or cells: brain (striatum) of living male Wistar rats, in vivo microPET
T2 sequence (Q9QYJ6 1-794): T1 sequence (Q9QYJ6 1-794)
Experimental: Imaging experiments were performed on a Focus™ 220 microPET scanner (Concorde Microsystems, Knoxville, Tenn., USA) using male Wistar rats with body weight varying between 300 and 600 g. […] Dynamic scans of 120 min were acquired in list mode. After reconstruction of the images, they were semi-automatically co-registered with a [^11C]raclopride template of the rat brain, and volumes of interest (VOIs) were generated for different anatomical brain structures (striatum, cerebral cortex and cerebellum) from which time-activity curves (TAC) were constructed for each individual image, using PMOD software (PMOD Technologies Ltd.). Normalization for body weight of the animal and injected dose was done. The radioactivity concentration in the different brain regions was expressed as SUV (standardized uptake value) as a function of time in seconds post injection of the radiotracer. The parametric binding potential (BP) values were calculated for all acquired images by using a simplified reference tissue model where the TAC of the cerebellum was used as input TAC for non-specific binding, using the same software (PMOD).
The radioactivity concentration in the different brain regions was expressed as SUV value as a function of time p.i. of the radiotracer by normalization for body weight of the animal and injected dose.

Q: Which melting point does the source give for `COc1cccc(COc2ccc(-c3nn(CCF)cc3-c3ccncc3)cc2)n1` (as salt: succinate) [Compound B24, 2-[[4-[1-(2-fluoroethyl)-4-(4-pyridinyl)-1H-pyrazol-3-yl]phenoxy]methyl]-6-methoxy-pyridine.succinate] here?
A: The melting point was 113.25 °C.

Q: For `CCOc1cccc(COc2ccc(-c3nn(CCF)cc3-c3ccncc3)cc2)n1` (as salt: succinate) [Compound B25, 2-ethoxy-6-[[4-[1-(2-fluoroethyl)-4-(4-pyridinyl)-1H-pyrazol-3-yl]phenoxy]methyl]-pyridine.succinate], which melting point is on record?
A: Its melting point is 119.65 °C.

Q: For `Cc1cnc(COc2ccc(-c3nn(CCF)cc3-c3ccncc3)cc2)c(C)c1C` (as salt: succinate) [Compound B28, 2-[[4-[1-(2-fluoroethyl)-4-(4-pyridinyl)-1H-pyrazol-3-yl]phenoxy]methyl]-3,4,5-trimethyl-pyridine.succinate], which melting point is on record?
A: The melting point was 197.08 °C.

Q: Which results are given for `COc1ccc(COc2ccc(-c3nn(CCF)cc3-c3ccncc3)cc2)nc1` [Compound B4, 2-[[4-[1-(2-fluoroethyl)-4-(4-pyridinyl)-1H-pyrazol-3-yl]phenoxy]methyl]-5-methoxy-pyridine]?
A: IC50 [1]: 3.31 nM; melting point: 117.52 °C

Q: With `COc1ccc(COc2ccc(-c3nn(CC(F)(F)F)cc3-c3ccncc3)cc2)nc1` [Compound B5, 5-methoxy-2-[[4-[4-(4-pyridinyl)-1-(2,2,2-trifluoroethyl)-1H-pyrazol-3-yl]phenoxy]methyl]-pyridine] as the compound, how does the IC50 [1] read?
A: Its IC50 is 5.13 nM.

Q: And the melting point?
A: The melting point was 136.3 °C.

Q: Which results are given for `COc1cccnc1COc1ccc(-c2nn(CC(F)(F)F)cc2-c2ccncc2)cc1` [Compound B9, 3-methoxy-2-[[4-[4-(4-pyridinyl)-1-(2,2,2-trifluoroethyl)-1H-pyrazol-3-yl]phenoxy]methyl]-pyridine]?
A: IC50 [1]: 5.13 nM; melting point: 147 °C

Q: Which results are given for `COc1cccnc1COc1ccc(-c2nn(CCCF)cc2-c2ccncc2)cc1` [Compound B12, 2-[[4-[1-(3-fluoropropyl)-4-(4-pyridinyl)-1H-pyrazol-3-yl]phenoxy]methyl]-3-methoxy-pyridine]?
A: IC50 [1]: 13.2 nM; melting point: 165.9 °C

Q: Which IC50 [1] does the source give for `FCCCn1cc(-c2ccncc2)c(-c2ccc(OCc3ccc(OCCF)cn3)cc2)n1` [Compound B15, 5-(2-fluoroethoxy)-2-[[4-[1-(3-fluoropropyl)-4-(4-pyridinyl)-1H-pyrazol-3-yl]phenoxy]methyl]-pyridine] here?
A: Its IC50 is 251 nM.

Q: What about the melting point of the same compound?
A: Its melting point is 206.8 °C.

Q: Which IC50 [1] does the source give for `FCCOc1ccc(COc2ccc(-c3nn(CCF)cc3-c3ccncc3)cc2)nc1` [Compound B19, 5-(2-fluoroethoxy)-2-[[4-[1-(2-fluoroethyl)-4-(4-pyridinyl)-1H-pyrazol-3-yl]phenoxy]methyl]-pyridine] here?
A: Its IC50 is 100 nM.

Q: What about the melting point of the same compound?
A: The melting point was 212.7 °C.

Q: With `FCCn1cc(-c2ccncc2)c(-c2ccc(OCc3ccc(Br)cn3)cc2)n1` [Compound B20, 5-bromo-2-[[4-[1-(2-fluoroethyl)-4-(4-pyridinyl)-1H-pyrazol-3-yl]phenoxy]methyl]-pyridine] as the compound, how does the IC50 [1] read?
A: The IC50 was 9.55 nM.

Q: What about the melting point of the same compound?
A: The melting point was 125.8 °C.

Q: Which IC50 [1] does the source give for `FCCn1cc(-c2ccncc2)c(-c2ccc(OCc3ccc(C(F)(F)F)cn3)cc2)n1` [Compound B22, 2-[[4-[1-(2-fluoroethyl)-4-(4-pyridinyl)-1H-pyrazol-3-yl]phenoxy]methyl]-5-(trifluoromethyl)-pyridine] here?
A: Its IC50 is 91.2 nM.

Q: And the melting point?
A: Its melting point is 133.23 °C.

Q: What does the source list for `N#Cc1cccc(COc2ccc(-c3nn(CCF)cc3-c3ccncc3)cc2)n1` [Compound B26, 6-[[4-[1-(2-fluoroethyl)-4-(4-pyridinyl)-1H-pyrazol-3-yl]phenoxy]methyl]-2-pyridinecarbonitrile]?
A: IC50 [1]: 33.1 nM; melting point: 148.7 °C

Q: Which results are given for `COc1ccc(Br)c(COc2ccc(-c3nn(CCF)cc3-c3ccncc3)cc2)n1` [Compound B27, 3-bromo-2-[[4-[1-(2-fluoroethyl)-4-(4-pyridinyl)-1H-pyrazol-3-yl]phenoxy]methyl]-6-methoxy-pyridine]?
A: IC50 [1]: 28.2 nM; melting point: 119.2 °C

Q: For `Cc1cnc(COc2ccc(-c3nn(CC[18F])cc3-c3ccncc3)cc2)c(C)c1` [[^18F]B-3], which “BP (binding potential) at baseline” value (PDE10A) is on record?
A: The value was 4.1.
